SMILES strings stand for the structures. pIC50: −log10 of the molar value.

The target of this assay is T1, 5-HT1A serotonin receptor (Rattus norvegicus, UniProt P19327).
T1 construct: from tissue; host or cells: rat brain membranes (inferred from the cited Hall et al. procedure)
T1 sequence (P19327 1-422): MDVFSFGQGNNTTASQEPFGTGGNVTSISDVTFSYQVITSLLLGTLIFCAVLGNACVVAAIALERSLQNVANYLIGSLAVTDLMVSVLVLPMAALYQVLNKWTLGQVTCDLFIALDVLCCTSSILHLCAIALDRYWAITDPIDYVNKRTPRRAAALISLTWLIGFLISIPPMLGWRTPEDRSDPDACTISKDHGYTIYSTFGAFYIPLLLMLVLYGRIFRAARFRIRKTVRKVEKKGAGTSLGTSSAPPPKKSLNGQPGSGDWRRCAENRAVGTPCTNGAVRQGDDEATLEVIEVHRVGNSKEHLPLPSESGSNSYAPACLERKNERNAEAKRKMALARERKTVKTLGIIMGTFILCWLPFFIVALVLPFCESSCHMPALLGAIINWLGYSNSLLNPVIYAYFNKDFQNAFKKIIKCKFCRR
The assay can be described thus: displacement of [3H] 8-OHDPAT from the 5-HT1A serotonin receptor (procedure of Hall et al.). Format: binding. The source says:
8-OHDPAT (dipropylaminotetralin) from the 5-HT1A serotonin receptor following the procedure of Hall et al., J. Neurochem. 44, 1685 (1985).
(In general: Displacement assays read how much labelled ligand stays bound in the presence of the test substance.)

Usually pIC50 stands for the negative decadic logarithm of the IC50, by convention in mol/L. Higher therefore signals a small IC50. In the case of `C[C@H](CN1CC=C(c2cccc3[nH]ccc23)CC1)Nc1ccccn1` [Example 1, {(R)-2-[4-(1H-Indol-4-yl)-(1,2,3,6-tetrahydro-pyridin-1-yl)]-1-methyl-ethyl}-(pyridin-2-yl)-amine], the pIC50 is 7.94.
With `C[C@H](CN1CC=C(c2cccc3[nH]ccc23)CC1)N(C(=O)C1CCCCC1)c1ccccn1` [Example 2] the figure was 8.77.

For the origin of these results see patent EP0785195A1, “Piperidine or tetrahydropyridine derivatives having affinity for the serotonin 5-HTIA receptor” (AMERICAN HOME FOOD PRODUCTS, INC., priority 1996, dated 1997).
